# Values of other authors, collected in PMC4937428, “The Next Generation Non-competitive Active Polyester Nanosystems for Transferrin Receptor-mediated Peroral Transport Utilizing Gambogic Acid as a Ligand” (Scientific Reports, 2016).
# Parameters: method as in PMID 16918721
# Settings: described in the literature
smiles,measurement,value
"CC(C)=CCC[C@]1(C)C=Cc2c(O)c3c(c(CC=C(C)C)c2O1)O[C@]12C(=C[C@@H]4C[C@H]1C(C)(C)O[C@@]2(C/C=C(/C)C(=O)O)C4=O)C3=O [GA, gambogic acid]",Established safe dose,60 mg/kg
